Patent US6787315B2, “Methods for identifying ligand binding sites in a biomolecule” (priority 2001, dated 2004)

Key:
[1] = test system: 16S RNA (27-mer RNA model of the prokaryotic A-site 16S RNA); experiment: ESI-FT-ICR MS ligand binding to unmodified 27-mer 16S RNA; parameters: species or system E. coli
Method: (§1) The following examples illustrate preferred embodiments of the present invention using mass spectrometry. Experiments were performed using a 7.0 Tesla Fourier transform ion cyclotron resonance (FT-ICR) mass spectrometer with an electrospray ionization source operating in the negative mode. A −3000 V difference was employed between the spray tip and the inlet capillary to generate the electrospray. Samples were introduced at a flow rate of 1.5 uL/min using a Harvard syringe pump and a 50 uL glass syringe. The desolvation of the electrospray droplets was aided by a flow of countercurrent gas at 1 L/min. Ions were accumulated for 1.0 sec in an intermediate hexapole ion storage region at 1.0×10^−5 mbar. Following transfer to the FT-ICR analysis cell, the image current was measured over a mass range of 500-4000 m/z. Typically, a total of 32 transients containing 512 kbytes were summed prior to Fourier transformation. The m/z values were calibrated on the signal from the [M-5H^+]^5− charge state of the free RNA at 1726.509.
An aqueous solution containing 100 mM ammonium acetate buffer (pH 7.0), 33% isopropyl alcohol, gentamicin (2 μM, present in three forms), 16S RNA (2.5 μM) and a modified 16S RNA (2.5 μM) was prepared. Modified 27-mer 16S RNA contained a 5-iodouridine residue at position 13 in the UUCG tetraloop (See FIG. 1). The resulting mass spectra (see FIG. 3, upper spectrum) contained identifiable peaks corresponding to free 16S RNA (m/z 1726.5), free modified 16S RNA(5IUtetra; m/z 1750.7), 16S complexed with the three forms of gentamicin present in the sample (16S+genta; m/z 1816-1825), and 16S(5IUtetra) complexed with the three forms of gentamicin (5IUtetra+genta; m/z 1841-1849). The peaks were integrated and ion abundances determined. Fractions of 16S+genta and 5IUtetra+genta complexes were determined to be 70.4% and 68.2±1% for the free 16S RNA and 5IUtetraRNA, respectively.
An aqueous solution containing 100 mM ammonium acetate buffer (pH 7.0), 33% isopropyl alcohol, gentamicin (2 μM), 16S RNA (2.5 μM) and a modified 16S RNA (2.5 μM) was prepared. Modified 27-mer 16S RNA contained a 5-iodouridine residue at position U1406 at the position of a U-U mismatch base pair (E. coli numbering system). The resulting mass spectra (see FIG. 3, lower spectrum) contained identifiable peaks corresponding to free 16S RNA (m/z 1726.5), free modified 16S RNA(5IU1406; m/z 1750.7), 16S complexed with the three forms of gentamicin present in the sample (16S+genta; m/z 1816-1825), and 16S(5IU1406) complexed with the three forms of gentamicin (5IU1406+genta; m/z 1841-1849). The peaks were integrated and ion abundances determined. Fractions of 16S+genta and 5IU1406+genta complexes were determined to be 66.8% and 28.1±1% for the free 16S RNA and 5IU1406 RNA, respectively.
An aqueous solution containing 50 mM ammonium acetate buffer (pH 7.0), 33% isopropyl alcohol, ribostamycin (2.5 μM), 16S RNA (2.5 μM) and a modified 16S RNA (2.5 μM) was prepared. […] The resulting mass spectra (see FIG. 4) contained identifiable peaks corresponding to free 16S RNA (m/z 1726.5), free modified 16S RNA(5IU 1495; m/z 1821.4), 16S complexed with ribostamycin present in the sample (16S+ribost; m/z 1818.6), and 16S(5IU1495) complexed with ribostamycin (5IU1495+ribost; m/z 1912.3). The peaks were integrated and ion abundances determined. Fractions of 16S+ribost and 5IU1495+ribost complexes were determined to be 67.6% and 29.9±1% for the free 16S RNA and 5IU1495 RNA, respectively.
An aqueous solution containing 100 mM ammonium acetate buffer (pH 7.0), 33% isopropyl alcohol, gentamicin (1 μM), 16S RNA (5 μM) and a modified 16S RNA (5.5 μM) was prepared. Modified 27-mer 16S RNA contained a 3′-phosphorothioate residue at position G1491 at the position of a G-C base pair (E. coli numbering system) and a C12O6 PEG mass tag off the 5′-hydroxyl group. Mass spectra were obtained using the standard protocol described above. […]

[2] = test system: modified 16S RNA (5′-PS-A1492; 3′-phosphorothioate at A1492, C12O6 PEG mass tag); experiment: ESI-FT-ICR MS ligand binding to 27-mer 16S RNA modified at A1492; parameters: species or system E. coli
Method: as §1
An aqueous solution containing 100 mM ammonium acetate buffer (pH 7.0), 33% isopropyl alcohol, gentamicin (1 μM), 16S RNA (5 μM) and a modified 16S RNA (5.5 μM) was prepared. […] The peaks from the complexes formed from the lowest mass form of gentamicin were integrated and ion abundances determined. Fractions of 16S+genta and 5′-PS-A1492+genta complexes were determined to be 0.121 and 0.118±0.01% for the free 16S RNA and 5′-PS-A1492 RNA, respectively.
An aqueous solution containing 100 mM ammonium acetate buffer (pH 7.0), 33% isopropyl alcohol, ribostamycin (1 μM), 16S RNA (5 μM) and a modified 16S RNA (5.5 μM) was prepared. […] The peaks from the complexes formed between ribostamycin and the RNA were integrated and ion abundances determined. Fractions of 16S+ribost and 5′-PS-A1492+ribost complexes were determined to be 0.101 and 0.082±0.005% for the free 16S RNA and 5′-PS-A1492 RNA, respectively.

[3] = Example 6: gentamicin 1 μM (lowest mass form integrated), 16S RNA 5 μM with 5′-PS-A1492 RNA 5.5 μM, 100 mM ammonium acetate pH 7.0, 33% isopropyl alcohol

| Compound | Fraction of 16S+ribost complex ([1]; Example 3: ribostamycin 2.5 μM, 16S RNA 2.5 μM with 5IU1495 RNA 2.5 μM, 50 mM ammonium acetate pH 7.0, 33% isopropyl alcohol) [%] | Fraction of 16S+ribost complex ([1]; Example 5: ribostamycin 1 μM, 16S RNA 5 μM with 5′-PS-G1491 RNA 5.5 uM, 100 mM ammonium acetate pH 7.0, 33% isopropyl alcohol) [%] | Fraction of 16S+ribost complex ([1]; Example 7: ribostamycin 1 μM, 16S RNA 5 μM with 5′-PS-A1492 RNA 5.5 μM, 100 mM ammonium acetate pH 7.0, 33% isopropyl alcohol) [%] | Amount of 5′-PS-A1492+ribost as % of the amount of 16S+ribost ([2]; Example 7: ribostamycin 1 μM) [%] | Fraction of 16S+genta complex ([1]; Example 1: gentamicin 2 μM (three forms), 16S RNA 2.5 μM with 5IUtetra RNA 2.5 μM, 100 mM ammonium acetate pH 7.0, 33% isopropyl alcohol) [%] | Fraction of 16S+genta complex ([1]; Example 2: gentamicin 2 μM, 16S RNA 2.5 μM with 5IU1406 RNA 2.5 μM, 100 mM ammonium acetate pH 7.0, 33% isopropyl alcohol) [%] | Fraction of 16S+genta complex ([1]; Example 4: gentamicin 1 μM (lowest mass form integrated), 16S RNA 5 μM with 5′-PS-G1491 RNA 5.5 μM, 100 mM ammonium acetate pH 7.0, 33% isopropyl alcohol) [%] | Fraction of 16S+genta complex [1, 3] [%] | Amount of 5′-PS-A1492+genta as % of the amount of 16S+genta ([2]; Example 6: gentamicin 1 μM) [%] | Fraction of 5′-PS-A1492+genta complex [2, 3] |
| --- | --- | --- | --- | --- | --- | --- | --- | --- | --- | --- |
| NC[C@H]1O[C@H](O[C@H]2[C@H](O[C@@H]3O[C@H](CO)[C@@H](O)[C@H]3O)[C@@H](O)[C@H](N)C[C@@H]2N)[C@H](N)[C@@H](O)[C@@H]1O [ribostamycin] | 67.6 | 0.105 | 0.101 | 80 | – | – | – | – | – | – |
| gentamicin | – | – | – | – | 70.4 | 66.8 | 0.127 | 0.121 | 97 | 0.118±0.01 fraction (0–1) |
